In the NIST ThermoML archive (doi:10.1021/je700260f):
Values joined by “and” are separate entries in the source; they are usually repeats but may differ in a detail not shown here. Equal values may be shown once.

Conditions: Liquid, Vibrating tube method

FC(C(F)(F)F)C(F)(F)F [1,1,1,2,3,3,3-heptafluoropropane]
Conditions	mass density
283.15 K, 34529 kPa	1579 kg/m3
283.15 K, 34530 kPa	1579 kg/m3
283.15 K, 34532 kPa	1579.1 kg/m3
283.15 K, 34533 kPa	1579 kg/m3
283.15 K, 34534 kPa	1579.1 kg/m3
283.15 K, 34535 kPa	1579.2 kg/m3
283.15 K, 34536 kPa	1579 kg/m3
283.15 K, 34538 kPa	1579 kg/m3 and 1579.1 kg/m3
283.15 K, 34540 kPa	1579.1 kg/m3
283.15 K, 34541 kPa	1579.1 kg/m3
283.16 K, 9519 kPa	1496 kg/m3
283.16 K, 9552 kPa	1496.3 kg/m3
283.16 K, 9579 kPa	1496.3 kg/m3
283.16 K, 9612 kPa	1496.4 kg/m3
283.16 K, 21379 kPa	1540.8 kg/m3
293.14 K, 783 kPa	1411.5 kg/m3
293.14 K, 832 kPa	1411.9 kg/m3
293.14 K, 869 kPa	1412.2 kg/m3
293.14 K, 911 kPa	1412.4 kg/m3
293.14 K, 943 kPa	1412.7 kg/m3
293.14 K, 980 kPa	1412.9 kg/m3
293.14 K, 1007 kPa	1413.2 kg/m3
293.14 K, 1048 kPa	1413.5 kg/m3
293.14 K, 1080 kPa	1413.6 kg/m3
293.14 K, 1113 kPa	1414 kg/m3
293.14 K, 1145 kPa	1414.1 kg/m3
293.14 K, 1191 kPa	1414.5 kg/m3
293.14 K, 1219 kPa	1414.6 kg/m3
293.14 K, 1252 kPa	1414.9 kg/m3
293.14 K, 1285 kPa	1415 kg/m3
293.14 K, 1319 kPa	1415.2 kg/m3
293.14 K, 1347 kPa	1415.6 kg/m3
293.14 K, 1380 kPa	1415.7 kg/m3
293.14 K, 1417 kPa	1415.9 kg/m3
293.14 K, 1446 kPa	1416.2 kg/m3
293.14 K, 1484 kPa	1416.4 kg/m3
293.14 K, 1514 kPa	1416.7 kg/m3
293.14 K, 1543 kPa	1417 kg/m3
293.14 K, 1583 kPa	1417.1 kg/m3
293.14 K, 1612 kPa	1417.3 kg/m3
293.14 K, 1754 kPa	1418.3 kg/m3
293.14 K, 1789 kPa	1418.7 kg/m3
293.14 K, 1824 kPa	1418.8 kg/m3
293.14 K, 1901 kPa	1419.3 kg/m3
293.14 K, 1941 kPa	1419.6 kg/m3
293.14 K, 1972 kPa	1419.8 kg/m3
293.14 K, 2001 kPa	1420.1 kg/m3
293.14 K, 2030 kPa	1420.1 kg/m3
293.14 K, 2059 kPa	1420.5 kg/m3
293.14 K, 2084 kPa	1420.5 kg/m3
293.14 K, 2104 kPa	1420.7 kg/m3
293.14 K, 2140 kPa	1421 kg/m3
293.14 K, 2164 kPa	1421 kg/m3
293.14 K, 2197 kPa	1421.3 kg/m3
293.14 K, 2221 kPa	1421.4 kg/m3
293.14 K, 2258 kPa	1421.7 kg/m3
293.14 K, 2291 kPa	1421.9 kg/m3
293.14 K, 2324 kPa	1422.2 kg/m3
293.14 K, 2349 kPa	1422.4 kg/m3
293.14 K, 2377 kPa	1422.7 kg/m3
293.14 K, 2402 kPa	1422.6 kg/m3
293.14 K, 2682 kPa	1424.5 kg/m3
293.14 K, 2707 kPa	1424.7 kg/m3
293.14 K, 2740 kPa	1424.9 kg/m3
293.14 K, 2766 kPa	1425.1 kg/m3
293.14 K, 2804 kPa	1425.4 kg/m3
293.14 K, 2829 kPa	1425.5 kg/m3
293.14 K, 2858 kPa	1425.8 kg/m3
293.14 K, 2883 kPa	1425.8 kg/m3
293.14 K, 2921 kPa	1426.1 kg/m3
293.14 K, 2959 kPa	1426.4 kg/m3
293.14 K, 2988 kPa	1426.7 kg/m3
293.14 K, 3018 kPa	1426.7 kg/m3
293.14 K, 3056 kPa	1426.9 kg/m3
293.14 K, 3082 kPa	1427.2 kg/m3
293.14 K, 3112 kPa	1427.3 kg/m3
293.14 K, 3147 kPa	1427.5 kg/m3
293.14 K, 3177 kPa	1427.8 kg/m3
293.14 K, 3211 kPa	1427.9 kg/m3
293.14 K, 3246 kPa	1428.2 kg/m3
293.14 K, 3290 kPa	1428.4 kg/m3
293.14 K, 3321 kPa	1428.7 kg/m3
293.14 K, 3360 kPa	1428.9 kg/m3
293.14 K, 3395 kPa	1429.1 kg/m3
293.14 K, 3426 kPa	1429.3 kg/m3
293.14 K, 3461 kPa	1429.4 kg/m3
293.14 K, 3502 kPa	1429.8 kg/m3
293.14 K, 3537 kPa	1430 kg/m3
293.14 K, 3573 kPa	1430.1 kg/m3
293.14 K, 3604 kPa	1430.4 kg/m3
293.14 K, 3631 kPa	1430.7 kg/m3
293.14 K, 3668 kPa	1430.7 kg/m3
293.14 K, 3690 kPa	1431.1 kg/m3
293.14 K, 3722 kPa	1431 kg/m3
293.14 K, 3750 kPa	1431.3 kg/m3
293.14 K, 3815 kPa	1431.8 kg/m3
293.14 K, 3876 kPa	1432.1 kg/m3
293.14 K, 4878 kPa	1438.3 kg/m3
293.14 K, 4910 kPa	1438.4 kg/m3
293.14 K, 4933 kPa	1438.5 kg/m3
293.14 K, 4965 kPa	1438.7 kg/m3
293.14 K, 4997 kPa	1438.9 kg/m3
